Experimental findings from PMC11931151, “Inhibition of carbohydrate digestive enzymes by a complementary essential oil blend: in silico and mixture design approaches” (Frontiers in Pharmacology, 2025) are described below.

For orientation: IC50 means the concentration that inhibits the measured activity by half.

This test concerns the target T1, intestinal α-glucosidase.
T1 construct: gene SI; called intestinal, sucrose as substrate (points to sucrase-isomaltase), but a commercial yeast enzyme cannot be excluded; docking model 2QMJ is human maltase-glucoamylase
As to the kind of experiment: sucrose hydrolysis, glucose oxidase-peroxidase, absorbance at […] nm. The format is biochemical. As to conditions: phosphate pH 7.5, 37 °C, 20 min pre-incubation, positive control.

Values after ≈ are worked out from the molar mass of the structure shown.

The molecule `C[C@H]1O[C@H](O[C@H]2[C@H](O)[C@@H](O)[C@@H](O[C@H]3[C@H](O)[C@@H](O)C(O)O[C@@H]3CO)O[C@@H]2CO)[C@H](O)[C@@H](O)[C@@H]1N[C@H]1C=C(CO)[C@@H](O)[C@H](O)[C@H]1O` (stereo partly shown) [acarbose] registered a 50% inhibitory concentration (IC50) of 59 ± 9 µg/mL (≈ 91.4 µM).
